Laboratory results reported in ChEMBL document CHEMBL4033645, “Design, synthesis, and docking studies of quinazoline analogues bearing aryl semicarbazone scaffolds as potent EGFR inhibitors” (Bioorg Med Chem, 2017).

Tests used:
[1] = tested on: HepG2; assay: Cytotoxicity against human HepG2 cells assessed as decrease in cell viability after 72 hrs by MTT assay; assay type: functional, cell-based
[2] = tested on: MCF7; assay: Cytotoxicity against human MCF7 cells assessed as decrease in cell viability after 72 hrs by MTT assay; assay type: functional, cell-based
[3] = tested on: PC-3; assay: Cytotoxicity against human PC3 cells assessed as decrease in cell viability after 72 hrs by MTT assay; assay type: functional, cell-based
[4] = tested on: A549; assay: Cytotoxicity against human A549 cells assessed as decrease in cell viability after 72 hrs by MTT assay; assay type: functional, cell-based; details: A549, 72 h
[5] = tested on: A549; assay: Induction of apoptosis in human A549 cells after 48 hrs by Annexin V-FITC/propidium iodide-staining based by flow cytometric analysis; assay type: functional, cell-based
[6] = biological target: Epidermal growth factor receptor (Homo sapiens, UniProt P00533); assay: Inhibition of EGFR (unknown origin) using FAM-labeled peptide as substrate measured after 10 mins by mobility shift assay
[7] = tested on: MCF7; assay: Potency index, ratio of afatinib IC50 to compound IC50 for human MCF7 cells; assay type: functional
[8] = tested on: HepG2; assay: Potency index, ratio of afatinib IC50 to compound IC50 for human HepG2 cells; assay type: functional
[9] = tested on: A549; assay: Induction of apoptosis in human A549 cells assessed as early apoptotic cells at 1 uM after 48 hrs by Annexin V-FITC/propidium iodide-staining based by flow cytometric analysis (reference value: 3.40%); assay type: functional
[10] = tested on: A549; assay: Induction of apoptosis in human A549 cells assessed as late apoptotic cells at 1 uM after 48 hrs by Annexin V-FITC/propidium iodide-staining based by flow cytometric analysis (reference value: 2.69%); assay type: functional
[11] = tested on: A549; assay: Induction of apoptosis in human A549 cells assessed as early apoptotic cells at 0.5 uM after 48 hrs by Annexin V-FITC/propidium iodide-staining based by flow cytometric analysis (reference value: 3.40%); assay type: functional
[12] = tested on: A549; assay: Induction of apoptosis in human A549 cells assessed as necrotic cells at 1 uM after 48 hrs by Annexin V-FITC/propidium iodide-staining based by flow cytometric analysis (reference value: 0.64%); assay type: functional
[13] = tested on: A549; assay: Induction of apoptosis in human A549 cells assessed as viable cells at 1 uM after 48 hrs by Annexin V-FITC/propidium iodide-staining based by flow cytometric analysis (reference value: 93.27%); assay type: functional; details: A549, 48 h, read-out: Activity
[14] = tested on: A549; assay: Induction of apoptosis in human A549 cells assessed as necrotic cells at 0.5 uM after 48 hrs by Annexin V-FITC/propidium iodide-staining based by flow cytometric analysis (reference value: 0.64%); assay type: functional
[15] = tested on: A549; assay: Induction of apoptosis in human A549 cells assessed as viable cells at 0.5 uM after 48 hrs by Annexin V-FITC/propidium iodide-staining based by flow cytometric analysis (reference value: 93.27%); assay type: functional; details: A549, 48 h, read-out: Activity
[16] = tested on: A549; assay: Induction of apoptosis in human A549 cells assessed as late apoptotic cells at 0.5 uM after 48 hrs by Annexin V-FITC/propidium iodide-staining based by flow cytometric analysis (reference value: 2.69%); assay type: functional
[17] = Homo sapiens, HepG2, 72 h, read-out: IC50
[18] = Homo sapiens, MCF7, 72 h, read-out: IC50
[19] = Homo sapiens, PC-3, 72 h, read-out: IC50

Sequence of Epidermal growth factor receptor (P00533 whole entry): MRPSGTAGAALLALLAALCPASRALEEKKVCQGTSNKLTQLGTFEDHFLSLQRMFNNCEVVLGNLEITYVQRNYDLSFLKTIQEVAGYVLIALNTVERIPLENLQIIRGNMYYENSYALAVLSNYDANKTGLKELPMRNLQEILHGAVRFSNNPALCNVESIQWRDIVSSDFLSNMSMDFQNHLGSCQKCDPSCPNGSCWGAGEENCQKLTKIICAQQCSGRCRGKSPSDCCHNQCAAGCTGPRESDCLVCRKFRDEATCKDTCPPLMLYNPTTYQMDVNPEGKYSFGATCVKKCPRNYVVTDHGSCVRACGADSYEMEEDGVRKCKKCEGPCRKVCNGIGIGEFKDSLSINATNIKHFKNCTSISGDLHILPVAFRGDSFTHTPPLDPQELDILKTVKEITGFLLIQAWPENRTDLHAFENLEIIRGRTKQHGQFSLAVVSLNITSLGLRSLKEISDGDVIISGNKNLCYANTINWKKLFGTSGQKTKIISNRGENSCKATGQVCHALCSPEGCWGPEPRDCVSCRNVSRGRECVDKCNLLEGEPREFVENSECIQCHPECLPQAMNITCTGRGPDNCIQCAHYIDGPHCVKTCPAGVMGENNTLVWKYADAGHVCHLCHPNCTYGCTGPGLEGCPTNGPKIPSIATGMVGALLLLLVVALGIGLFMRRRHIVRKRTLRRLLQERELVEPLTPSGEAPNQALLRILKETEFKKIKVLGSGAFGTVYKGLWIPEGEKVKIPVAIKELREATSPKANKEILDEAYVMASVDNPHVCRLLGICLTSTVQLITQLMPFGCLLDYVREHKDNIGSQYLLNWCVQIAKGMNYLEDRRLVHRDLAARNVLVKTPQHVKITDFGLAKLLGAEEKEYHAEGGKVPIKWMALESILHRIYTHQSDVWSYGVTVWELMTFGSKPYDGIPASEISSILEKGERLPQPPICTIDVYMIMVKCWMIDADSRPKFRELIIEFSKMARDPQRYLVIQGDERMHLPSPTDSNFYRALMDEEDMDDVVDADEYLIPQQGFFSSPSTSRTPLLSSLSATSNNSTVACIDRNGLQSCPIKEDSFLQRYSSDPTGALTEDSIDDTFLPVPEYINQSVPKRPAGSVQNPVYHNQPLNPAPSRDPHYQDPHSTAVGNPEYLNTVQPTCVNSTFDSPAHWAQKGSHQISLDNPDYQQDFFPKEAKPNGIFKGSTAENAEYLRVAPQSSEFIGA

Row | Compound | IC50 [1, 17] [µM] | IC50 [2, 18] [µM] | IC50 [3, 19] [µM] | IC50 [4] [µM] | also measured
1 | CCN(CC)c1ccc(/C=N/NC(=O)Nc2cc3c(Nc4ccc(F)c(Cl)c4)ncnc3cc2O[C@H]2CCOC2)c(O)c1 | 15.7 | 15.6 | 4.59 | 15.7 | 
2 | O=C(N/N=C/c1ccc(F)cc1Cl)Nc1cc2c(Nc3ccc(F)c(Cl)c3)ncnc2cc1O[C@H]1CCOC1 | 26.1 | 32.2 | 28.4 | 27.2 | 
3 | COc1cc(/C=N/NC(=O)Nc2cc3c(Nc4ccc(F)c(Cl)c4)ncnc3cc2O[C@H]2CCOC2)cc(OC)c1OC | 31.2 | 26.5 | 29.6 | 26.4 | 
4 | COc1cc2ncnc(Nc3ccc(F)c(Cl)c3)c2cc1NC(=O)N/N=C/c1ccc(C#N)cc1 | 34.1 |  | 36.5 | 32.2 | 
5 | CC(C)(C)c1cc(/C=N/NC(=O)Nc2cc3c(Nc4ccc(F)c(Cl)c4)ncnc3cc2O[C@H]2CCOC2)cc(C(C)(C)C)c1O | 12.5 | 14.5 | 13.1 | 18.9 | 
6 | COc1ccc(/C=N/NC(=O)Nc2cc3c(Nc4ccc(F)c(Cl)c4)ncnc3cc2O[C@H]2CCOC2)c(OC)c1OC | 29.3 | 33.8 | 25.6 | 25.2 | 
7 | COc1cc2ncnc(Nc3ccc(F)c(Cl)c3)c2cc1NC(=O)N/N=C/c1ccc(O)cc1O | 32.1 | 36.2 | 29.5 | 31.4 | 
8 | COc1ccc(/C=N/NC(=O)Nc2cc3c(Nc4ccc(F)c(Cl)c4)ncnc3cc2O[C@H]2CCOC2)cc1 | 28.8 | 27.3 | 34.1 | 33.1 | 
9 | COc1cc2ncnc(Nc3ccc(F)c(Cl)c3)c2cc1NC(=O)N/N=C/c1cccc(Br)c1 |  | 27.1 |  | 28.1 | IC50 ([1]; hepg2): Not Active; IC50 ([3]; pc-3): Not Active
10 | COc1cc2ncnc(Nc3ccc(F)c(Cl)c3)c2cc1NC(=O)N/N=C/c1cc(C(C)(C)C)c(O)c(C(C)(C)C)c1 | 26.8 | 28.3 | 28.7 | 37.1 | 
11 | COc1cc2ncnc(Nc3ccc(F)c(Cl)c3)c2cc1NC(=O)N/N=C/c1ccc(F)cc1Cl | 29.2 |  | 25.7 | 28.2 | IC50 ([2]; mcf7): Not Active
12 | O=C(N/N=C/c1cccc(Cl)c1Cl)Nc1cc2c(Nc3ccc(F)c(Cl)c3)ncnc2cc1O[C@H]1CCOC1 | 16.9 |  | 27.4 | 25 | IC50 ([2]; mcf7): Not Active
13 | O=C(N/N=C/c1ccc(F)cc1)Nc1cc2c(Nc3ccc(F)c(Cl)c3)ncnc2cc1O[C@H]1CCOC1 |  | 28.2 |  | 35.1 | IC50 ([1]; hepg2): Not Active; IC50 ([3]; pc-3): Not Active
14 | COc1cc2ncnc(Nc3ccc(F)c(Cl)c3)c2cc1NC(=O)N/N=C/c1cc(OC)c(OC)c(OC)c1 | 30.1 | 30.7 | 36.5 | 32.1 | 
15 | COc1cc2ncnc(Nc3ccc(F)c(Cl)c3)c2cc1NC(=O)N/N=C/c1cccc(Cl)c1Cl | 26.1 | 28.7 | 24.4 | 35.3 | 
16 | COc1cc2ncnc(Nc3ccc(F)c(Cl)c3)c2cc1NC(=O)N/N=C/c1ccc(F)cc1 | 31.1 | 35.1 | 36.5 | 26.6 | 

Row | Compound | IC50 [1, 17] [µM] | IC50 [2, 18] [µM] | IC50 [3, 19] [µM] | IC50 [4] [µM] | also measured
17 | COc1cc2ncnc(Nc3ccc(F)c(Cl)c3)c2cc1NC(=O)N/N=C/c1ccc([N+](=O)[O-])cc1 | 34.1 | 36.8 | 32.4 | 35.1 | 
18 | O=C(N/N=C/c1cccc(Br)c1)Nc1cc2c(Nc3ccc(F)c(Cl)c3)ncnc2cc1O[C@H]1CCOC1 | 32.3 | 12.4 | 15.5 | 10.7 | 
19 | N#Cc1ccc(/C=N/NC(=O)Nc2cc3c(Nc4ccc(F)c(Cl)c4)ncnc3cc2O[C@H]2CCOC2)cc1 | 26.4 |  | 28.1 | 29.1 | 
20 | O=C(N/N=C/c1ccc(O)cc1)Nc1cc2c(Nc3ccc(F)c(Cl)c3)ncnc2cc1O[C@H]1CCOC1 | 0.07 | 0.91 | 4.89 | 1.32 | Activity [5]: Dose-dependent effect; IC50 [6]: 0.056 µM; Ratio IC50 [7]: 2.9; Ratio IC50 [8]: 19; Activity [9]: 8.81%; Activity [10]: 8.94%; Activity [11]: 6.81%; Activity [12]: 4.37%; viability at 1 µM [13]: 77.9%; Activity [14]: 2.37%; viability at 0.5 µM [15]: 83.9%; Activity [16]: 6.94%
21 | COc1cc2ncnc(Nc3ccc(F)c(Cl)c3)c2cc1NC(=O)N/N=C/c1ccc(OC)c(OC)c1OC | 31.2 |  | 29.3 | 32.8 | IC50 ([2]; mcf7): Not Active
22 | COc1cc2ncnc(Nc3ccc(F)c(Cl)c3)c2cc1NC(=O)N/N=C/c1ccc(O)c(Br)c1 | 23.8 |  | 15.3 | 28.6 | IC50 ([2]; mcf7): Not Active
23 | COc1ccc(/C=N/NC(=O)Nc2cc3c(Nc4ccc(F)c(Cl)c4)ncnc3cc2OC)cc1 | 21.3 | 8.14 | 16.5 | 28.1 | 
24 | O=C(N/N=C/c1ccc(O)cc1O)Nc1cc2c(Nc3ccc(F)c(Cl)c3)ncnc2cc1O[C@H]1CCOC1 | 4.53 | 5.35 | 7.54 | 9.36 | 
25 | O=C(N/N=C/c1ccc(O)c(Br)c1)Nc1cc2c(Nc3ccc(F)c(Cl)c3)ncnc2cc1O[C@H]1CCOC1 | 0.66 | 2.69 | 5.23 | 4.31 | 
26 | O=C(N/N=C/c1ccc([N+](=O)[O-])cc1)Nc1cc2c(Nc3ccc(F)c(Cl)c3)ncnc2cc1O[C@H]1CCOC1 | 35.3 |  | 33.5 | 31.2 | IC50 ([2]; mcf7): Not Active
27 | COc1cc2ncnc(Nc3ccc(F)c(Cl)c3)c2cc1NC(=O)N/N=C/c1ccc(O)cc1 | 26.3 | 28.6 | 16.6 | 7.61 | 
28 | O=C(N/N=C/c1cc(Br)c(O)c(Br)c1)Nc1cc2c(Nc3ccc(F)c(Cl)c3)ncnc2cc1O[C@H]1CCOC1 | 2.74 | 5.91 | 6.16 | 8.91 | 
29 | COc1cc2ncnc(Nc3ccc(F)c(Cl)c3)c2cc1NC(=O)N/N=C/c1cc(Br)c(O)c(Br)c1 | 36.8 | 30.2 | 41.5 | 34.6 | 
30 | CCN(CC)c1ccc(/C=N/NC(=O)Nc2cc3c(Nc4ccc(F)c(Cl)c4)ncnc3cc2OC)c(O)c1 | 29.3 | 27.3 | 34.3 | 27.3 | 
31 | CN(C)C/C=C/C(=O)Nc1cc2c(Nc3ccc(F)c(Cl)c3)ncnc2cc1O[C@H]1CCOC1 [AFATINIB] |  |  | 3.96 | 1.4 | 
